Experimental findings from patent publication US10463044B2, “Molecules that inhibit efflux pumps in multi-drug resistant bacteria and uses thereof” (priority 2014, dated 2019) are described below.

Values after ≈ are worked out from the molar mass of the structure shown. Values joined by “and” are separate entries in the source; they are usually repeats but may differ in a detail not shown here. Identical values can stand only once. Like-named read-outs stand apart in the source and are kept apart here.

In series [1] the test system is K-12 E. coli. Briefly: MIC, K-12 E. coli. The conditions noted are these: compound alone. Format: cell-based, Escherichia coli. From the text:
(§1) Minimal Inhibitory Concentration (MIC) Procedure. […] Streak the E. coli (DH5α or K-12 MG1655) strain on L.B agar plates. […] Prepare initial concentration of all the compounds required. • 5. […] Vortex each test tube for 2-3 seconds. • 9. […] Vortex each test tube for 2-3 seconds. • 11.

Series [2] deals with tetracycline resistant E. coli (tetA efflux pump). Briefly: microbe, parasite or virus in culture. Format: cell-based, Escherichia coli. The conditions noted are these: compound alone; for MIC: tetracycline resistant E. coli. An excerpt: (§2) Among the organisms studied are several strains of the bacterium E. coli.
Minimal Inhibitory Concentration (MIC) Procedure. […] Streak the E. coli (DH5α or K-12 MG1655) strain on L.B agar plates. […] Prepare initial concentration of all the compounds required. • 5. […] Vortex each test tube for 2-3 seconds. • 9. […] Vortex each test tube for 2-3 seconds. • 11. […]
(§3) The minimal inhibitory concentrations (MIC) of all the compounds against three bacterial strains were first determined using the microtiter technique as described above. […] Antimicrobial property of hydraphiles is attributed to the disruption of ion homeostasis in bacteria.

Series [3] deals with K. pneumoniae (ATCC BAA 2146). Briefly: MIC, K. pneumoniae. The class given is cell-based, Klebsiella pneumoniae.
Source text: K. pneumoniae (ATCC BAA 2146; another Gram-negative bacterium) that expresses multiple classes of efflux pumps and NDM-1 gene was also used. This K. pneumoniae is a clinically relevant strain that was isolated from a patient. Gram-positive S. aureus 1199B was used that overexpresses the NorA efflux pump. Since ethidium bromide and norfloxacin are the substrates of efflux pumps, S. aureus 1199B was used to evaluate the activity of efflux pumps in the presence of the hydraphiles and other membrane disruptors.
as §3

In series [4] the test system is K. pneumoniae (ATCC BAA 2146). Kind of series: Recovery of antibiotic activity against K. pneumoniae by hydraphiles. Format: cell-based, Klebsiella pneumoniae. The procedure:
(§4) However, the bacterial strains used herein are multidrug resistant and the effect of hydraphiles on the inhibition of resistance mechanism (efflux pumps) was not known. The hydraphiles and the controls were tested next to see whether they could recover the activity of antibiotics against efflux pump expressing Gram-positive and Gram-negative bacteria. The MIC of antibiotics were determined in the presence of ½ [MIC] or ¼ [MIC] of each hydraphile or the controls used.

For series [5], the system named is tetracycline resistant E. coli (tetA efflux pump). The class given is cell-based, Escherichia coli. The procedure:
as §4

A further series deals with E. coli. Kind of series: Minimum inhibitory concentration (MIC), E. coli. The conditions noted are these: compound alone. Format: cell-based, Escherichia coli.
Source text: as §2, §1

Another series deals with B. subtilis. Briefly: Minimum inhibitory concentration (MIC), B. subtilis. The class given is cell-based, Bacillus subtilis. The conditions noted are these: compound alone. The procedure: Among the organisms studied are several strains of the bacterium E. coli. […] Experiments were conducted to determine the MIC values for the synthetic amphiphiles known as lariat ethers according to the procedures described in Antimicrobial M07-A9: Methods for Dilution Antimicrobial Susceptibility Tests for Bacteria that Grow Aerobically; Clinical and Laboratory Standards Institute, 2012; Vol. 32, 67 pp. MIC values so determined for several lariat ethers and for several antibiotics are shown in Table 1.

A further series has as its system S. cerevisiae. Kind of series: Minimum inhibitory concentration (MIC), S. cerevisiae. Format: cell-based, Saccharomyces cerevisiae. The conditions noted are these: compound alone.
Series [6] relates to DH5α E. coli. Format: cell-based, Escherichia coli. The conditions noted are these: compound alone.
Source text: as §2, §1

Series [7] has as its system K-12 E. coli. Kind of series: Combination of amphiphile and antibiotic against K-12 E. coli. Format: cell-based, Escherichia coli.
Experimental: (§5) Steps 1-7, described in the MIC procedure, shown in Example 2, were followed. • 2. While the E. coli grew, the appropriate volume of compound was added to each test tube. • 3. Antibiotics were added at the required volume of solution to obtain the desired concentration in each test tube. […] Each test tube was vortexed for 2-3 seconds. • 5. Steps 10-12 from the MIC procedure, shown in Example 2, were then executed.
The next series relates to HEK-293 cells. Kind of series: Toxicity of lariat ethers to HEK-293 cells (MTT assay). Format: cell-based. From the text: The error bars represent the standard error. […]
Series [8] has as its system DH5α E. coli. Briefly: Combination of lariat ether and antibiotic against DH5α E. coli.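 Further: E. coli grown in test-tube liquid culture at a fixed total volume of 2 mL, with the amphiphile and the antibiotic both added to each tube.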 Format: cell-based, Escherichia coli.
Experimental: The volume of water added was between 12 to 0.5 μL. The volume of water added was not constant but the volume of media was changed so that the total volume was kept constant at 2 mL.
as §5
The mark [9] stands for this setting: Tetracycline, amphiphile used 16 μM.

Turning to `CN(C)[C@@H]1C(O)=C(C(N)=O)C(=O)[C@@]2(O)C(O)=C3C(=O)c4c(O)cccc4[C@@](C)(O)[C@H]3C[C@@H]12` [tetracycline], the MIC in the series on K-12 E. coli [1] (Escherichia coli) was 6 µM (≈ 2.67 µg/mL); in series [2] (Escherichia coli), approximately 900 µM (≈ 400 µg/mL); in series [2] it was 900 ± 50 µM and 900 µM; in series [3] (Klebsiella pneumoniae, BAA2146, read-out: Minimal Inhibitory Concentrations (MIC) K. pneumoniae), 1000 µM (≈ 444 µg/mL). Also, in series [2] (microtiter, inhibition greater than 80% considered as the MIC), the “Minimal Inhibitory Concentrations (MIC) E. coli (Tet^R)” value is 900 µM and 900 ± 100 µM. For the same compound, in series [3] (compound alone, inhibition greater than 80% considered as the MIC), the “Minimal Inhibitory Concentrations (MIC) K. pneumoniae” value amounted to 1000 ± 100 µM. Moreover, in series [4], the “recovery of tetracycline activity by hydraphiles” value was found to be 40 fold.

Gramicidin D [reference compound]: in [5] (amphiphile/control 20 μM), the “[Tetracycline] μM in combination” value came to 900 ± 100 µM.

Regarding “N,N′-di-n-decyl-4,13-diaza-18-crown-6 [C10 lariat ether]”, in the series on E. coli, the “MIC (μM) E. coli” value turned out to be 11 µM. The “MIC (μM) B. subtilis” value against B. subtilis worked out at 2.8 µM. Besides, in the series on S. cerevisiae, the “MIC (μM) S. cerevisiae” value was determined as 2.8 µM. For the same compound, the “MIC” value was found to be 12 µM with DH5α E. coli [6], 12 µM against K-12 E. coli [1] and 16 µM in series [2]. For the same compound, the “Antibiotic Used (μM) in combination” value was 5 µM in the series with K-12 E. coli [7] (Rifampicin, amphiphile used 6 μM); 225 µM in [5] (amphiphile used 6 μM); 56 µM in series [5] (amphiphile used 9 μM). For the same compound, the “Fold Enhancement” value in series [5] (amphiphile used 6 μM) was found to be 4 fold; in series [5] (amphiphile used 9 μM), 16 fold. For the same compound, in the series with HEK-293 cells, the “toxicity to HEK-293 compared among lariat ethers” value was “highest toxicity”.

As for “N,N′-di-n-dodecyl-4,13-diaza-18-crown-6 [C12 lariat ether]”, the “MIC (μM) E. coli” value against E. coli is more than 300 µM. The “MIC (μM) B. subtilis” value against B. subtilis amounted to 2.5 µM. The “MIC (μM) S. cerevisiae” value against S. cerevisiae turned out to be 2.5 µM. For the same compound, the MIC against K-12 E. coli [1] is listed as more than 512 µM. In the series on K-12 E. coli [7] (setting [9]), the “Antibiotic Used (μM) in combination” value was determined as 3 µM and the “Fold Enhancement” value was found to be 2 fold. Also, in series [5] (amphiphile used 192 μM), the “Antibiotic Used (μM) in combination” value stood at 450 µM and the “Fold Enhancement” value was found to be 2 fold.

For the compound “N,N′-di-n-octyl-4,13-diaza-18-crown-6 [C8 lariat ether]”, the “MIC (μM) E. coli” value against E. coli turned out to be 120 µM. Also, the “MIC (μM) B. subtilis” value in the series on B. subtilis amounted to 105 µM. For the same compound, the “MIC (μM) S. cerevisiae” value in the series on S. cerevisiae amounted to 25 µM. Also, the “MIC” value is more than 240 µM against DH5α E. coli [6]; 120 µM against DH5α E. coli [6] (listed as C8 Lariat); more than 120 µM with DH5α E. coli [6] (listed as n-C8); 300 µM in the series with K-12 E. coli [1]; 120 µM in series [2]. Moreover, the “Antibiotic Used (μM) in combination” value in the series on DH5α E. coli [8] (rifampicin, amphiphile used 40 μM, 0.4 vol-% DMSO) came to 3 ± 1 µM; in the series with DH5α E. coli [8] (rifampicin, amphiphile used 60 μM, 0.4 vol-% DMSO) it was 3 ± 1 µM; in the series on DH5α E. coli [8] (rifampicin, amphiphile used 80 μM, 0.4 vol-% DMSO) it was 3 ± 1 µM; in the series with DH5α E. coli [8] (tetracycline, amphiphile used 20 μM, 0.4 vol-% DMSO) it was 12 µM; in the series with DH5α E. coli [8] (tetracycline, amphiphile used 30 μM, ≤0.6 vol-% DMSO), 3 µM; with DH5α E. coli [8] (tetracycline, amphiphile used 40 μM, 0.4 vol-% DMSO), 2 µM. For the same compound, the “Antibiotic Used (μM) in combination” value in the series on DH5α E. coli [8] (tetracycline, amphiphile used 60 μM, 0.4 vol-% DMSO) is 2 µM; with DH5α E. coli [8] (tetracycline, amphiphile used 80 μM, 0.4 vol-% DMSO), 0.5 µM; in the series on DH5α E. coli [8] (tetracycline, amphiphile used 100 μM, 0.4 vol-% DMSO), 0.25 µM; in the series with K-12 E. coli [7] (Rifampicin, amphiphile used 32 μM) it was 10 µM; with K-12 E. coli [7] (Rifampicin, amphiphile used […] μM), 5 µM; with K-12 E. coli [7] (Tetracycline, amphiphile used […] μM), 2.5 µM. The “Antibiotic Used (μM) in combination” value in series [5] (amphiphile used 40 μM) was found to be 233 µM; in series [5] (amphiphile used 60 μM) it was 175 µM; in series [5] (amphiphile used 80 μM) it was 87 µM. Further, the “Fold Enhancement” value in [5] (amphiphile used 40 μM) was 4 fold; in [5] (amphiphile used 60 μM), 5 fold; in series [5] (amphiphile used 80 μM) it was 10 fold. In the series with HEK-293 cells, the “LD50 to HEK-293” value turned out to be 33 µM.

Take “N,N′-di-n-tetradecyl-4,13-diaza-18-crown-6 [C14 lariat ether]”: the “MIC (μM) E. coli” value against E. coli is more than 300 µM. For the same compound, in the series on B. subtilis, the “MIC (μM) B. subtilis” value was more than 300 µM. For the same compound, in the series on S. cerevisiae, the “MIC (μM) S. cerevisiae” value is more than 300 µM.
